Columns and labels:
[1] = biological target: T1, SrLDC (lysine decarboxylase from Selenomonas ruminantium) (Pseudoselenomonas ruminantium, UniProt O50657); assay: isothermal titration calorimetry, independent binding model
T1 construct: gene ldc; residues 1-399 as printed (count probably includes the C-terminal 6xHis; sheet domain ends at Val393); pET-22b(+), C-terminal 6xHis kept; E. coli BL21(DE3)-T1R

[2] = biological target: T1, SrLDC (lysine decarboxylase from Selenomonas ruminantium); assay: X-ray crystal structure, […] Å; assay type: binding; settings: PLP-complexed crystal soaked with 10 mM L-lysine for 30 min; cadaverine observed instead; pH 4.2; active site at dimer interface
[3] = biological target: Lysine decarboxylase from Selenomonas ruminantium (Selenomonas ruminantium); assay: crystal structure; three crystal forms: apo I (P43212, one molecule per asymmetric unit, dimer generated by crystallographic symmetry), apo II (C2, a dimer in the asymmetric unit), PLP/cadaverine complex (P6322, one molecule per asymmetric unit); hanging-drop vapor diffusion at 20°C; protein in 40 mM Tris-HCl, pH 8.0

T1 sequence (O50657 whole entry, the tested form may be a part): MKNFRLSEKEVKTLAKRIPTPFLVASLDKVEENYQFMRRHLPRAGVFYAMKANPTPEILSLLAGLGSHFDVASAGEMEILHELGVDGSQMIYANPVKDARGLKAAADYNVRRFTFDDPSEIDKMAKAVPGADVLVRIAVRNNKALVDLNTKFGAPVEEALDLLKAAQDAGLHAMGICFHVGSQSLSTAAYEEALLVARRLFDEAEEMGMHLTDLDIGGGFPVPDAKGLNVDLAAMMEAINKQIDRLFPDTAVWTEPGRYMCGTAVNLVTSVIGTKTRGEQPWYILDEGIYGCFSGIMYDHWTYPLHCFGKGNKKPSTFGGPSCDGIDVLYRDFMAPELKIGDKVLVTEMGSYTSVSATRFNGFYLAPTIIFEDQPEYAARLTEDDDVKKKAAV

Compound `Cc1ncc(COP(=O)(O)O)c(C=O)c1O` [PLP] has a Kd [1] of 72 µM.
In the case of `NCCCCCN` [cadaverine], the “X-ray crystal structure, 2.5 Å” value [2] is reported as “soaked the crystals of SrLDC complexed with PLP in L-lysine, a cadaverine molecule was observed”.
Compound “Lysine decarboxylase from Selenomonas ruminantium (enzyme)” has a stoichiometry N [3] of 2.

From PMC5115768, “Crystal Structure and Pyridoxal 5-Phosphate Binding Property of Lysine Decarboxylase from Selenomonas ruminantium” (PLoS ONE, 2016)
